Measured values: patent publication US20050191267A1, “Anti-photoaging cosmeceutical composition” (priority 2004, published 2005)

System: inflamed ears of experimental mice
Test: Anti-inflammatory activity on ethyl phenyl propyolate-inflamed mice ears
Assay type: in vivo
Method: The test for anti-inflammatory activity can be done on lab mice by applying ethyl phenyl propyolate on mice ears at a concentration of 1 mg per ear to induce inflammation. The fullest swollen ear can be observed 1 hour after the application, then the tested extracts and reference compound, dexamethasone, are applied onto the inflamed ears at a dose of 0.05 mg/ear. The reduction in the thickness of the ears in comparison with the control group indicates anti-inflammatory activity, as shown in Table 1.

With `C[C@@H]1C[C@H]2[C@@H]3CCC4=CC(=O)C=C[C@]4(C)[C@@]3(F)[C@@H](O)C[C@]2(C)[C@@]1(O)C(=O)CO` [Anti-inflammatory, Dexamethasone] the “Percentage reduction of inflamed ears” value (0 min, ethyl phenyl propyolate 1 mg per ear) was 0%, the “Percentage reduction of inflamed ears” value (60 min after inducer (fullest swelling, time of application), 0.05 mg/ear) was 54.253% and the “Percentage reduction of inflamed ears” value (90 min, 0.05 mg/ear topical) was 42.533%. For the same compound, the “Percentage reduction of inflamed ears” value (120 min, 0.05 mg/ear topical) was 38.752%, the “Percentage reduction of inflamed ears” value (240 min, 0.05 mg/ear topical) was 25.142% and the “Percentage reduction of inflamed ears” value (360 min, 0.05 mg/ear topical) was 13.422%. For the same compound, the “Percentage reduction of inflamed ears” value (480 min, 0.05 mg/ear topical) was 11.531%.
